In PMC5960717 (Frontiers in Microbiology, 2018):

Columns and labels:
ScAlt1 [1] = target: T1, ScAlt1 (Saccharomyces cerevisiae, UniProt P52893); assay: UV-visible shift, external Schiff base ([…] nm); assay type: binding; conditions: 50 mM KH2PO4, 4 mM MgCl2, PLP, covalent
T1 construct: gene ALT1; N-terminal His-tag (pET-28a), E. coli Rosetta 2 (DE3); theoretical monomer 61 kDa, SEC 147 kDa, dimer
T1 sequence (P52893 81-592): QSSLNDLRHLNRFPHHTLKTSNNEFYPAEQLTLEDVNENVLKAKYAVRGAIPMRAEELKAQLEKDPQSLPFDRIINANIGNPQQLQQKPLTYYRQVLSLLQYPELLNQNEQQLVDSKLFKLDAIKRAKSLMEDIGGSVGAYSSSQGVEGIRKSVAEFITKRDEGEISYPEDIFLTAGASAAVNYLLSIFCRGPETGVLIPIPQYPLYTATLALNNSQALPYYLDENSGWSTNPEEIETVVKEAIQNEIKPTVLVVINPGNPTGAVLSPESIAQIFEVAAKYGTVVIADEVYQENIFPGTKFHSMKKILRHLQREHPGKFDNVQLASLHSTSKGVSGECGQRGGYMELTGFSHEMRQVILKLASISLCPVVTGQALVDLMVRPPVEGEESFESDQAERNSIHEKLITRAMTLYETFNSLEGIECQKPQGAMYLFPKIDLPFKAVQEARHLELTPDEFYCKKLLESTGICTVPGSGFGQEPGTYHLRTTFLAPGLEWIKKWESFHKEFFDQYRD

ScAlt2 = target: T2, ScAlt2 (Saccharomyces cerevisiae, UniProt P52892); assay: UV-visible absorption of Schiff base ([…] nm), NaBH4 reduction; assay type: binding; conditions: covalent (reversible internal Schiff base, ketoenamine); 50 mM K2HPO4, 4 mM MgCl2, pH 7.5, 100 μM PLP
T2 construct: gene ALT2; N-terminal His-tag (pET-28a), E. coli Rosetta 2 (DE3), 4°C expression; forward primer ATGACAATGACACACCAACAGG (MTMTHQQ); theoretical monomer 58 kDa, SEC 127 kDa, dimer
T2 sequence (P52892 1-507): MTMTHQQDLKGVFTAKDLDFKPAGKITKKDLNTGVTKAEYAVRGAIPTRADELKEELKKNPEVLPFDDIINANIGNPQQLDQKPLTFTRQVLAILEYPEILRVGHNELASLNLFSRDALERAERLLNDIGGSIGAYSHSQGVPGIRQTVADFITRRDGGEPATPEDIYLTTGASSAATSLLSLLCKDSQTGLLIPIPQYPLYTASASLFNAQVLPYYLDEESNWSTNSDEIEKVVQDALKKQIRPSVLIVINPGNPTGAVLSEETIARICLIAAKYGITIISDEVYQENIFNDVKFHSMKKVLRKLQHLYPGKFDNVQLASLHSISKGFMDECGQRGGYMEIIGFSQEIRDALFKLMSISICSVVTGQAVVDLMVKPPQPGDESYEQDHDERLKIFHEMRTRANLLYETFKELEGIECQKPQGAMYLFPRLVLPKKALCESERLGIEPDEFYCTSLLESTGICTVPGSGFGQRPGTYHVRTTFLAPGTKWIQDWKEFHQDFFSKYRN

ScAlt1 [2] = target: T1, ScAlt1; assay: UV-visible absorption of Schiff base ([…]-335 and […] nm), NaBH4 reduction; assay type: binding; conditions: covalent (reversible internal Schiff base, enolimine and ketoenamine); 50 mM K2HPO4, 4 mM MgCl2, pH 7.5, 100 μM PLP
ScAlt1 [3] = target: T1, ScAlt1; assay: intrinsic fluorescence titration ([…] nm); assay type: binding
purified protein [4] = substrate: C[C@H](N)C(=O)O; assay: purified protein; conditions: varied alanine 2-15 mM and α-ketoglutarate 0.05-10 mM, 40 μM PLP, pH 7.5, 25°C, ping-pong, Ka here = Michaelis constant
purified protein [5] = substrate: O=C(O)CCC(=O)C(=O)O; assay: purified protein; assay type: biochemical, Saccharomyces cerevisiae; conditions: varied alanine 2-15 mM and α-ketoglutarate 0.05-10 mM, 40 μM PLP, pH 7.5, 25°C, ping-pong, Ka here = Michaelis constant, co-substrate alanine
[6] = target: the molecule itself; assay: SEC; Superose 6 10/300 GL on an Akta FPLC; mobile phase 50 mM K2HPO4, 4 mM Mg2Cl, pH 7.5; calibrated with Bio-Rad molecular weight standards
[7] = 1 μl of 81 mM stock added to 10 μl protein

## N[C@@H](CS)C(=O)O [cysteine]
ScAlt1 [1]; 1 μl of 238 mM stock added to 10 μl protein
  UV-visible shift, external Schiff base (325 nm): ScAlt1 could form external Schiff base with glutamate, serine, cysteine, histidine, and aspartic acid

## Cc1ncc(COP(=O)(O)O)c(C=O)c1O [PLP]
ScAlt2
  UV-visible absorption of Schiff base (420 nm), NaBH4 reduction: both, ScAlt1 and ScAlt2 have PLP attached through a Schiff base
ScAlt1 [2]
  UV-visible absorption of Schiff base (330-335 and 420 nm), NaBH4 reduction: both, ScAlt1 and ScAlt2 have PLP attached through a Schiff base

## N[C@@H](CCC(=O)O)C(=O)O [glutamate]
ScAlt1 [1]; [7]
  UV-visible shift, external Schiff base (325 nm): ScAlt1 could form external Schiff base with glutamate, serine, cysteine, histidine, and aspartic acid

## N[C@@H](Cc1cnc[nH]1)C(=O)O [histidine]
ScAlt1 [1]; 1 μl of 20 mM stock added to 10 μl protein
  UV-visible shift, external Schiff base (325 nm): ScAlt1 could form external Schiff base with glutamate, serine, cysteine, histidine, and aspartic acid

## N[C@@H](CC(=O)O)C(=O)O [aspartic acid]
ScAlt1 [1]; [7]
  UV-visible shift, external Schiff base (325 nm): ScAlt1 could form external Schiff base with glutamate, serine, cysteine, histidine, and aspartic acid

## N[C@@H](CO)C(=O)O [serine]
ScAlt1 [1]; 1 μl of 23 mM stock added to 10 μl protein
  UV-visible shift, external Schiff base (325 nm): ScAlt1 could form external Schiff base with glutamate, serine, cysteine, histidine, and aspartic acid

## C[C@H](N)C(=O)O [alanine]
ScAlt1 [3]
  Kd: 1000 ± 100 µM

B1: ScAlt1 (Saccharomyces cerevisiae S288C) (protein)
chain: T1 sequence (P52893 81-592)
notes: N-terminal His-tag (pET-28a), E. coli Rosetta 2 (DE3); theoretical monomer 61 kDa, SEC 147 kDa, dimer
Purified protein [4]
  Km: 10.39 ( ± 1.12) mM
  kcat: 698 s⁻¹
Purified protein [5]
  Km: 0.67 ( ± 0.06) mM
  kcat: 698 s⁻¹

B2: ScAlt1 (Saccharomyces cerevisiae alanine transaminase), recombinant, without the mitochondrial localization sequence (enzyme, S. cerevisiae, UniProt P52893 65-592, looked up)
chain: SSSWIVAQNHRRSLSGQSSLNDLRHLNRFPHHTLKTSNNEFYPAEQLTLEDVNENVLKAKYAVRGAIPMRAEELKAQLEKDPQSLPFDRIINANIGNPQQLQQKPLTYYRQVLSLLQYPELLNQNEQQLVDSKLFKLDAIKRAKSLMEDIGGSVGAYSSSQGVEGIRKSVAEFITKRDEGEISYPEDIFLTAGASAAVNYLLSIFCRGPETGVLIPIPQYPLYTATLALNNSQALPYYLDENSGWSTNPEEIETVVKEAIQNEIKPTVLVVINPGNPTGAVLSPESIAQIFEVAAKYGTVVIADEVYQENIFPGTKFHSMKKILRHLQREHPGKFDNVQLASLHSTSKGVSGECGQRGGYMELTGFSHEMRQVILKLASISLCPVVTGQALVDLMVRPPVEGEESFESDQAERNSIHEKLITRAMTLYETFNSLEGIECQKPQGAMYLFPKIDLPFKAVQEARHLELTPDEFYCKKLLESTGICTVPGSGFGQEPGTYHLRTTFLAPGLEWIKKWESFHKEFFDQYRD
notes: ScAlt1, alanine transaminase of S. cerevisiae, amplified from genomic DNA of strain CLA1; no residue limits are stated; the forward primer (CATATGCAATCTTCGCTAAACGACCTGC) places the start at Met-QSSLNDL; the reverse primer appears to lie after the stop codon; theoretical monomer mass printed as 61 kDa; The start of the construct can be worked out from the printed forward primer …
[6]
  stoichiometry N: 2

B3: ScAlt2 (Saccharomyces cerevisiae presumed alanine transaminase paralogue), recombinant (enzyme, S. cerevisiae, UniProt P52892 1-507, looked up)
chain: T2 sequence (P52892 1-507)
notes: ScAlt2 of S. cerevisiae, amplified from genomic DNA of strain CLA1; the forward primer starts at ATGACAATGACACACCAACAGG (MTMTHQQ) and the reverse primer holds the stop codon (TCA ATT ACG ATA ...); theoretical monomer mass printed as 58 kDa; source: E. coli Rosetta 2 (DE3), pET-28a(+), purified (Ni-NTA)
[6]
  stoichiometry N: 2
